From patent US4277477A, “Method of using 1,2-benzisothiazoles” (BASF Aktiengesellschaft, priority 1977, dated 1981)
Counter-ions that a name gives are not always drawn.

Legend:
in vivo = format: in vivo, rats (Sprague Dawley); conditions: rat, in vivo; rats, oral; read-out: Maximum effect, Dose (maximum nontoxic dose)
Method: (§1) The anti-arrhythmic activity of the compounds is determined by orally administering these to rats (Sprague Dawley, weight: 180-240 g) 45 minutes before the start of narcosis (100 mg/kg of thiobutabarbital, administered intraperitoneally).
(§2) The arrhythmogenous substance used was aconitine, administered by intravenous infusion (at the rate of 0.005 mg/kg. minute) 60 minutes after administration of the benzisothiazole derivative.
(§3) for a quantitative evaluation of the linear relation between the logarithm of the dose (mg/kg) of the test substances and the relative increase in the duration of infusion of aconitine (Δ%), the dose which increases the duration of infusion by 50% (ED 50%) was determined.

[1] = tested on: Aconitineinduced arrhythmia in rats; test: in vivo; format: in vivo, rats (Sprague Dawley); conditions: oral
Method: as §1, §2, §3

female Swiss mice = conditions: LD 50 mice i.p. / ED 50% rats oral
Method: The acute toxicity was determined on groups of 10 or 20 female Swiss mice weighing 20-26 g, using intraperitoneal administration.

c1ccc2c(-c3ccc(C4=NCCCN4)cc3)nsc2c1 [Example 2, 3-[4'-(Tetrahydropyrimidin-2"-yl)-phenyl]-1,2-benzisothiazole hydrochloride]
MTD (in vivo): 215 mg/kg
antiarrhythmic activity, times greater than that of procainamide [1]: about 5 times
therapeutic range (LD 50/ED 50%), times greater than for procainamide (female Swiss mice): 4 times

CC1CN=C(c2ccc(-c3nsc4ccccc34)cc2)N1 (centres unmarked) [Example 3, 3-[4'-(Methylimidazolin-2"-yl)-phenyl]-1,2-benzisothiazole hydrochloride]
MTD (in vivo): 215 mg/kg
antiarrhythmic activity, times greater than that of procainamide [1]: about 5 times
Antiarrhythmic effect, R.E. (relative effect; procainamide = 1.00) ([1]; relative to procainamide): 4.80
therapeutic range (LD 50/ED 50%), times greater than for procainamide (female Swiss mice): 2.8 times

CCN(CC)CCNC(=O)c1ccc(N)cc1 [Procainamide, procainamide, reference compound]
MTD (in vivo): 681 mg/kg
